According to patent US20250034136A1 (Nimbus Wadjet, Inc., priority 2023, published 2025):
Like-named read-outs stand apart in the source and are kept apart here.

How the values were obtained:
[1] = biological target: WRN (BV08), human Werner helicase (Uniprot Q14191, amino acids 517-1235 with L1074F point mutation) (Homo sapiens (Human), UniProt Q14191, L1074F); experiment: WRN (BV08) ADP-Glo assay; format: biochemical; settings: class symbols A-E, read-out: ADP-Glo_hWRN_IC50
Procedure: Bovine skin gelatin (BSG), dimethyl sulfoxide (DMSO), Pluronic F-127 and tris(2-carboxyethyl)phosphine hydrochloride solution (TCEP) were purchased from Sigma-Aldrich (St. Louis, MO) at the highest level of purity possible. […] DNA strands were annealed by heating to 95° C. for 5 minutes followed by slow cooling to room temperature. Compounds in 100% DMSO (0.1 μl) were spotted into a 384-well white polystyrene Optiplate-384 (Perkin Elmer; Waltham, MA) assay plate using a LabCyte Echo 550 (Agilent; Santa Clara, CA). DMSO (0.1 μl) was added to columns 12, rows A-H and column 24, rows I-P for the maximum signal control. […] Compounds/DMSO were preincubated for 15 minutes at 25° C. with 5 μl 2×WRN (BV08), prepared as described below, in assay buffer containing 20 mM Bicine (pH=7.5), 1 mM MgCl2, 10 mM KCl, 0.1% Pluronic F-127, 0.005% BSG, 1 mM TCEP. The reaction was initiated by the addition of 5 μl 2× substrate mixture in assay buffer and incubated for 60 minutes at 25° C. The final concentrations of the assay components were 0.15 nM WRN, 5 μM ATP, and 0.1 nM DNA duplex. The final DMSO concentration was 1% and the reference compound concentration (NSC-617145) used for the minimal signal control was 20 μM. The reaction was stopped by the addition of the ADP-Glo Kit components (Promega; Madison, WI) as directed and the relative luminescence units (RLU) were read on an Envision 2104 (Perkin Elmer; Waltham, MA). % inhibition calculation:
[formula] • Where RLU=relative luminescence units, sample=signal in sample well, and MIN and MAX are the respective minimum and maximum signal controls.
[formula] • Where top and bottom are normally allowed to float but may be fixed at 100 or 0 respectively in a 3-parameter fit. Y is the % inhibition and X is the compound concentration.
Molecular Biology and virus production. […] The baculovirus from the expression plasmid WRN—BV08 was generated from transfection and amplification following the manufacturer's instructions.
Sf9 cells grown in SF900II media were infected with 1:200 WRN—BV08 P2 virus and incubated for protein expression for 72 h at 27° C. The WRN protein was purified using the following protocol. The cell pellets were thawed and resuspended in buffer A (50 mM Tris, pH 7.5, 500 mM NaCl, 1 mM TCEP, 10% Glycerol) supplemented with 0.5% CHAPS, 1 mM PMSF, 1 μg/ml Leupeptin, 1 μg/ml Pepstatin, and the Pierce Universal Nuclease and cocktail tablet. Cleared lysates were loaded onto a Ni Sepharose™ excel column and washed with buffer A and bound protein was eluted with buffer A supplemented with 300 mM imidazole. The eluted protein was dialyzed against buffer A and digested by His-tagged TEV (1:5 ratio) overnight at 4° C. ZnCl2 was added into the sample at final 15 μM before loading onto a second Ni Sepharose™ excel column. Untagged WRN protein was eluted from the column with buffer A supplemented with 20 mM imidazole, dialyzed overnight into buffer B (50 mM Tris, pH 7.5, 1 mM TCEP, 10% Glycerol) supplemented with 150 mM NaCl and loaded onto a Heparin column. Proteins were eluted with a step gradient of buffer B supplemented with 150 mM, 200 mM, 300 mM and 500 mM NaCl. WRN containing fractions were pooled and concentrated prior to loading on to size exclusion chromatography using a HiLoad 16/600 Superdex™ 200 pg column (GE Healthcare) in buffer C (20 mM HTEPES, pH 7.5, 250 mM NaCl, 0.25 mM TCEP, […]).

[2] = system: p21 induction in HCT116 cells; experiment: p21 induction in HCT116 cells; format: cell-based; settings: HCT116 cells, 24 h compound incubation, read-out: P21_EC50
Procedure: The colon carcinoma cell line HCT116 was obtained from ATCC and cultured in growth medium consisting of Mccoy's 5A Medium (Gibco 16600108) supplemented with 10% FBS (Transgene FS201-02) and 100 units/mL penicillin-streptomycin (Gibco 15140122) and maintained at 37° C. under 5% CO2. On the day of seeding, 2,000 cells in 30 μL of culture media were plated per well to Poly-D-Lysine 384 Well Black Clear Plates (Biocoat 356663) and incubated overnight at 37° C. under 5% CO2. The following day, compounds were serially diluted in DMSO for a total of 11 test concentrations. […] Next, 150 nL of diluted compound was added in duplicate to the assay plate, using an Echo 655 (Labcyte). The plate was centrifuged at 500 RPM for 1 min and then incubated at 37° C. under 5% CO2 for 24 h. After 24 h, medium was removed, and cells were fixed by adding 40 μL of 4% paraformaldehyde solution to each well and incubated for 20 min at room temperature. The plate was then washed 4 times with 100 μL per well of wash buffer (PBS with 0.1% Tween-20) using a microplate washer. Next, 30 μL of ice-cold methanol was added to each well and the plate was incubated at −20° C. for 10 min. The plate was washed 4 times with 100 μL per well of wash buffer by a microplate washer, then 30 μL per well of blocking buffer (Intercept PBS blocking buffer (LI-COR 927-70001) with 0.05% Tween-20) was added and the plate was incubated at room temperature with shaking for 2 h. Next, to each test well, 20 μL of primary antibody solution (p21 Waf1/CIP (12D1) RabbitmAb (Cell Signaling Technologies 2947) diluted 1:1000 and GAPDH (D4C6R) Mouse mAb (Cell Signaling Technologies 97166) diluted 1:2000 in blocking buffer) was added and the plate was placed at 4° C., overnight. The following day, the plate was washed 5 times with 100 μL per well of wash buffer using a microplate washer for 5 min. 20 μL per well of secondary antibody (IRDye 680CW Goat anti-Mouse IgG (H+L) (LI-COR 926-68070) diluted 1: 2000 in Blocking Buffer and IRDye 800CW Goat anti-Rabbit IgG (H+L) (LI-COR 926-32211) diluted 1: 2000 in Blocking Buffer) was then added and the plate was stored for 2 h in the dark at room temperature with shaking. The plate was then washed 4 times with 100 μL per well of wash buffer again using a microplate washer. Finally, the p21 signal and the GAPDH signal were quantified using a LI-COR Odyssey CLx Imager machine reading at 800 nm and 700 nm, respectively. Each plate contained DMSO control (low control) and an internal reference WRN inhibitor (high control) respectively. […] EC50 values for each compound were generated after non-linear regression curve fitting using commercially available software.

Chain of WRN (BV08), human Werner helicase (Uniprot Q14191, amino acids 517-1235 with L1074F point mutation) (Q14191 other isoform, or with tags, fused parts or gaps L1074F (already in the parent)): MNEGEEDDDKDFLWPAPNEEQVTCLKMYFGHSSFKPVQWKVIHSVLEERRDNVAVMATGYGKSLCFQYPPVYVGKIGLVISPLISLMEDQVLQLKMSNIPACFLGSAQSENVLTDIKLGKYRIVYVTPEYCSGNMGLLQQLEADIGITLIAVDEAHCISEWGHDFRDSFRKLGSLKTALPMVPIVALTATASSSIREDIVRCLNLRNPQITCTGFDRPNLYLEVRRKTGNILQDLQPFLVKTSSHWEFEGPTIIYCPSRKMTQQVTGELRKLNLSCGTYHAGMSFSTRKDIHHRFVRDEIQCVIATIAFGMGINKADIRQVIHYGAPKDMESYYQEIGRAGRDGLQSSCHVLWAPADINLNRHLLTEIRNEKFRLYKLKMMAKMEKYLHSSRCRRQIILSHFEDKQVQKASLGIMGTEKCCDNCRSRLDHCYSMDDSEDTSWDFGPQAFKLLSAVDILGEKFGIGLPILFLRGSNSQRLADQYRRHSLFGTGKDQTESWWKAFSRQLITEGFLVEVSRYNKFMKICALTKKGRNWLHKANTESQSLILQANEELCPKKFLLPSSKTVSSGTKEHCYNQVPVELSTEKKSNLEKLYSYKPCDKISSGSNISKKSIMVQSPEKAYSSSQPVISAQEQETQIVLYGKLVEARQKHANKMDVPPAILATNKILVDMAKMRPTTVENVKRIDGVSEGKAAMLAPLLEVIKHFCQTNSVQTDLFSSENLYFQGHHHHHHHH

IC50 [1] | EC50 ([2]; Homo sapiens, HCT-116, 24 h) | EC50 [2] | Compound
5 to 50 nM | 500 to 2000 nM |  | CCc1c(N2CCN(C(=O)c3ncnc(C)c3O)[C@H]3CCC32)c(=O)c2nc(OC)c(C)nc2n1CC(=O)Nc1ccc(C(F)(F)F)cc1Cl (mixture of isomers) [I-16, rac-N-(2-chloro-4-(trifluoromethyl)phenyl)-2-(6-ethyl-7-(5-(5-hydroxy-6-methylpyrimidine-4-carbonyl)-2,5-diazabicyclo[4.2.0]octan-2-yl)-2-methoxy-3-methyl-8-oxopyrido[2,3-b]pyrazin-5(8H)-yl)acetamide]
5 to 50 nM | < 500 nM |  | CCc1c(N2CCN(C(=O)c3ncnc(C)c3O)[C@H]3CC[C@@H]32)c(=O)c2nc(NC)cnc2n1CC(=O)Nc1ccc(C(F)(F)F)cc1Cl (racemic) [I-97, rac-N-(2-chloro-4-(trifluoromethyl)phenyl)-2-(6-ethyl-7-(-5-(5-hydroxy-6-methylpyrimidine-4-carbonyl)-2,5-diazabicyclo[4.2.0]octan-2-yl)-2-(methylamino)-8-oxopyrido[2,3-b]pyrazin-5(8H)-yl)acetamide]
5 to 50 nM | < 500 nM |  | CCc1c(N2CCN(C(=O)c3ncnc(C)c3O)[C@@H]3CC[C@H]32)c(=O)c2nc(C=C3CCC3)cnc2n1CC(=O)Nc1ccc(C(F)(F)F)cc1Cl (racemic) [I-135]
5 to 50 nM | < 500 nM |  | CCO/C=C/c1cnc2c(n1)c(=O)c(N1CCN(C(=O)c3ncnc(C)c3O)[C@H]3CC[C@@H]31)c(CC)n2CC(=O)Nc1ccc(C(F)(F)F)cc1Cl (racemic) [I-136, rac-N-[2-chloro-4-(trifluoromethyl)phenyl]-2-{2-[(1E)-2-ethoxyethenyl]-6-ethyl-7-[-5-(5-hydroxy-6-methylpyrimidine-4-carbonyl)-2,5-diazabicyclo[4.2.0]octan-2-yl]-8-oxo-5H,8H-pyrido[2,3-b]pyrazin-5-yl}acetamide]
5 to 50 nM | 500 to 2000 nM |  | CCc1c(N2CCN(C(=O)c3c(O)ccnc3OC)[C@@H]3CC[C@H]32)c(=O)c2nc(N(C)C)cnc2n1CC(=O)Nc1ccc(C(F)(F)F)cc1Cl (racemic) [I-139, rac-N-[2-chloro-4-(trifluoromethyl)phenyl]-2-[2-(dimethylamino)-6-ethyl-7-[-5-(4-hydroxy-2-methoxypyridine-3-carbonyl)-2,5-diazabicyclo[4.2.0]octan-2-yl]-8-oxo-5H,8H-pyrido[2,3-b]pyrazin-5-yl]acetamide]
5 to 50 nM | 2000 to 5000 nM |  | CCc1c(N2CCN(C(=O)c3ncnc(C)c3O)CC2)c(=O)c2nc(N(C)[C@H]3CC[C@@H]3OC)cnc2n1CC(=O)Nc1ccc(C(F)(F)F)cc1Cl (racemic) [I-143, rac-N-(2-chloro-4-(trifluoromethyl)phenyl)-2-(6-ethyl-7-(4-(5-hydroxy-6-methylpyrimidine-4-carbonyl)piperazin-1-yl)-2-((2-methoxycyclobutyl)(methyl)amino)-8-oxopyrido[2,3-b]pyrazin-5(8H)-yl)acetamide]
5 to 50 nM | 2000 to 5000 nM |  | CCc1c(N2CCN(C(=O)c3ncnc(C)c3O)CC2)c(=O)c2nc(N(C)[C@H]3CC[C@H]3OC)cnc2n1CC(=O)Nc1ccc(C(F)(F)F)cc1Cl (racemic) [I-146, rac-N-(2-chloro-4-(trifluoromethyl)phenyl)-2-(6-ethyl-7-(4-(5-hydroxy-6-methylpyrimidine-4-carbonyl)piperazin-1-yl)-2-((2-methoxycyclobutyl)(methyl)amino)-8-oxopyrido[2,3-b]pyrazin-5(8H)-yl)acetamide]
5 to 50 nM | < 500 nM |  | CCc1c(N2CCN(C(=O)c3ncnc(C)c3O)CC2)c(=O)c2nc(N3CC[C@@H]4CC[C@@H]43)cnc2n1CC(=O)Nc1ccc(C(F)(F)F)cc1Cl (racemic) [I-230, rac-2-(2-(2-azabicyclo[3.2.0]heptan-2-yl)-6-ethyl-7-(4-(5-hydroxy-6-methylpyrimidine-4-carbonyl)piperazin-1-yl)-8-oxopyrido[2,3-b]pyrazin-5(8H)-yl)-N-(2-chloro-4-(trifluoromethyl)phenyl)acetamide]
5 to 50 nM | 2000 to 5000 nM |  | CCc1c(N2CCN(C(=O)c3ncnc(C)c3O)[C@H]3CC(F)(F)C[C@@H]32)c(=O)c2nc(N(C)C)cnc2n1CC(=O)Nc1ccc(C(F)(F)F)cc1Cl (racemic) [I-291, rac-N-(2-chloro-4-(trifluoromethyl)phenyl)-2-(7-(6,6-difluoro-4-(5-hydroxy-6-methylpyrimidine-4-carbonyl)octahydro-1H-cyclopenta[b]pyrazin-1-yl)-2-(dimethylamino)-6-ethyl-8-oxopyrido[2,3-b]pyrazin-5(8H)-yl)acetamide]
≤ 5 nM | < 500 nM |  | CCc1c(N2CCN(C(=O)c3ncnc(C)c3O)[C@H]3CC[C@@H]32)c(=O)c2nc(N3CC[C@H]4C[C@H]43)cnc2n1CC(=O)Nc1ccc(C(F)(F)F)cc1F (relative stereo) [I-122, 2-(2-((1R*,5S*)-2-azabicyclo[3.1.0]hexan-2-yl)-6-ethyl-7-((1S,6S)-5-(5-hydroxy-6-methylpyrimidine-4-carbonyl)-2,5-diazabicyclo[4.2.0]octan-2-yl)-8-oxopyrido[2,3-b]pyrazin-5(8H)-yl)-N-(2-fluoro-4-(trifluoromethyl)phenyl)acetamide]
5 to 50 nM |  | > 5000 nM | CCc1c(N2CCN(C(=O)c3ncnc(C)c3O)[C@@H](COC)C2)c(=O)c2nc(N(C)C)cnc2n1CC(=O)Nc1ccc(C(F)(F)F)cc1Cl (single isomer, unassigned) [I-96, N-(2-chloro-4-(trifluoromethyl)phenyl)-2-(2-(dimethylamino)-6-ethyl-7-(4-(5-hydroxy-6-methylpyrimidine-4-carbonyl)-3-(methoxymethyl)piperazin-1-yl)-8-oxopyrido[2,3-b]pyrazin-5(8H)-yl)acetamide]
